Laboratory results: the supplement of paper PMC11451515

What was measured:
Conditions in all cases: 48 h
SEM cells [1] = assay: cell viability relative to DMSO control; higher = less cytotoxic
Procedure, shortened: (§1)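 NOMO1, SEM and P12-Ichikawa leukemia cells spent at least four passages adapting to each medium before use. They were seeded at 500 cells/well (NOMO1, SEM) or 1000 cells/well (P12-Ichikawa) in 5 μl in 1536-well plates and pin-dosed with library compounds in DMSO at 11 threefold steps from 47 μM down to 0.79 nM. After 48 h at 37°C, CellTiter-Glo One luminescence was read. Viability is reported as a percentage of the DMSO wells on each plate, with cell-free wells as background.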

NOMO1 [2] = assay: AUC of viability dose-response curve (% viability x log10 dose units); higher = less sensitive
Procedure, shortened: (§2)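 Medium-adapted leukemia cells in 1536-well plates, at 500 or 1000 cells/well, were incubated for 48 h at 37°C with library compounds in DMSO at 11 threefold doses from 47 μM to 0.79 nM. CellTiter-Glo One luminescence normalised per plate to DMSO and cell-free wells was fitted with a four-parameter log-logistic model over log10 doses. Area under the curve was integrated from this fit by trapezoidal rule, with curves beyond full viability scaled and failed quality-control curves removed.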

SEM cells [3] = assay: as above
Procedure, shortened: as §2

P12-Ichikawa [4] = assay: as above
Procedure, shortened: as §2

NOMO1 [5] = assay: cell viability relative to DMSO control; higher = less cytotoxic
Procedure, shortened: as §1

P12-Ichikawa [6] = assay: as above
Procedure, shortened: as §1

COC(=O)N[C@H](C(=O)N1CCC[C@H]1c1ncc(-c2ccc(-c3ccc(-c4cnc([C@@H]5CCCN5C(=O)[C@@H](NC(=O)OC)C(C)C)[nH]4)cc3)cc2)[nH]1)C(C)C
SEM cells [1], HPLM + 10% dialyzed FBS
Conditions | cell viability [%]
0.000781 µM | 90.4
0.00234 µM | 116
0.00702 µM | 132
0.0211 µM | 125
0.0632 µM | 129
0.19 µM | 126
0.569 µM | 117
1.71 µM | 131
5.12 µM | 133
15.4 µM | 126
46.1 µM | 98.3

AUC of viability dose-response curve
Conditions | NOMO1 [2] | P12-Ichikawa [4] | SEM cells [3]
HPLM + 10% dialyzed FBS | 437 | 473 | 468
RPMI 5 mM glucose + 10% FBS | 458 | 474 | 468
RPMI 5 mM glucose + 10% dialyzed FBS | 470 | 473 | 460

CC(C)c1c(C(=O)Nc2ccccc2)c(-c2ccccc2)c(-c2ccc(F)cc2)n1CC[C@@H](O)C[C@@H](O)CC(=O)[O-]
cell viability [%]
Conditions | NOMO1 [5] | P12-Ichikawa [6] | SEM cells [1]
HPLM + 10% dialyzed FBS, 0.000781 µM | 109 | 101 | 108
HPLM + 10% dialyzed FBS, 0.00234 µM | 108 | 102 | 117
HPLM + 10% dialyzed FBS, 0.00702 µM | 118 | 106 | 103
HPLM + 10% dialyzed FBS, 0.0211 µM | 112 | 99.4 | 113
HPLM + 10% dialyzed FBS, 0.0632 µM | 94.4 | 98.6 | 112
HPLM + 10% dialyzed FBS, 0.19 µM | 97.4 | 97.4 | 102
HPLM + 10% dialyzed FBS, 0.569 µM | 100 | 106 | 93.2
HPLM + 10% dialyzed FBS, 1.71 µM | 97.2 | 91.2 | 104
HPLM + 10% dialyzed FBS, 5.12 µM | 88.4 | 85.7 | 99.8
HPLM + 10% dialyzed FBS, 15.4 µM | 75.6 | 85.2 | 75
HPLM + 10% dialyzed FBS, 46.1 µM | 52.4 | 47.2 | 69.9
RPMI 5 mM glucose + 10% FBS, 0.000781 µM | 96.4 | 97.5 | 81.9
RPMI 5 mM glucose + 10% FBS, 0.00234 µM | 91.3 | 92.6 | 92.3
RPMI 5 mM glucose + 10% FBS, 0.00702 µM | 94.6 | 99.6 | 110
RPMI 5 mM glucose + 10% FBS, 0.0211 µM | 90.8 | 94.7 | 120
RPMI 5 mM glucose + 10% FBS, 0.0632 µM | 88.2 | 97.1 | 103
RPMI 5 mM glucose + 10% FBS, 0.19 µM | 116 | 87.9 | 86.3
RPMI 5 mM glucose + 10% FBS, 0.569 µM | 97.6 | 93.3 | 98.3
RPMI 5 mM glucose + 10% FBS, 1.71 µM | 80.1 | 87.6 | 97
RPMI 5 mM glucose + 10% FBS, 5.12 µM | 83.7 | 68.4 | 88.6
RPMI 5 mM glucose + 10% FBS, 15.4 µM | 83.5 | 56.3 | 70
RPMI 5 mM glucose + 10% FBS, 46.1 µM | 61.5 | 23.2 | 45.1
RPMI 5 mM glucose + 10% dialyzed FBS, 0.000781 µM | 90.4 | 97.4 | 99.6
RPMI 5 mM glucose + 10% dialyzed FBS, 0.00234 µM | 100 | 91.9 | 109
RPMI 5 mM glucose + 10% dialyzed FBS, 0.00702 µM | 90.9 | 91.2 | 104
RPMI 5 mM glucose + 10% dialyzed FBS, 0.0211 µM | 89.6 | 92 | 106
RPMI 5 mM glucose + 10% dialyzed FBS, 0.0632 µM | 102 | 95.7 | 93.4
RPMI 5 mM glucose + 10% dialyzed FBS, 0.19 µM | 103 | 90.5 | 68.5
RPMI 5 mM glucose + 10% dialyzed FBS, 0.569 µM | 92.2 | 89.5 | 104
RPMI 5 mM glucose + 10% dialyzed FBS, 1.71 µM | 77.9 | 83.8 | 97.8
RPMI 5 mM glucose + 10% dialyzed FBS, 5.12 µM | 73.9 | 85.1 | 93.3
RPMI 5 mM glucose + 10% dialyzed FBS, 15.4 µM | 67.3 | 67.6 | 80
RPMI 5 mM glucose + 10% dialyzed FBS, 46.1 µM | 48.4 | 36.3 | 60.9

AUC of viability dose-response curve
Conditions | NOMO1 [2] | P12-Ichikawa [4] | SEM cells [3]
HPLM + 10% dialyzed FBS | 428 | 448 | 440
RPMI 5 mM glucose + 10% FBS | 431 | 400 | 439
RPMI 5 mM glucose + 10% dialyzed FBS | 412 | 409 | 447

Nc1nc(NCCNc2ncc(-n3ccnc3)c(-c3ccc(Cl)cc3Cl)n2)ccc1[N+](=O)[O-]
cell viability [%]
Conditions | NOMO1 [5] | P12-Ichikawa [6] | SEM cells [1]
HPLM + 10% dialyzed FBS, 0.000781 µM | – | 114 | 120
HPLM + 10% dialyzed FBS, 0.00234 µM | – | 119 | 134
HPLM + 10% dialyzed FBS, 0.00702 µM | – | 125 | 112
HPLM + 10% dialyzed FBS, 0.0211 µM | – | 123 | 135
HPLM + 10% dialyzed FBS, 0.0632 µM | – | 126 | 123
HPLM + 10% dialyzed FBS, 0.19 µM | – | 132 | 132
HPLM + 10% dialyzed FBS, 0.569 µM | – | 133 | 132
HPLM + 10% dialyzed FBS, 1.71 µM | – | 131 | 99.6
HPLM + 10% dialyzed FBS, 5.12 µM | – | 134 | 104
HPLM + 10% dialyzed FBS, 15.4 µM | – | 130 | 121
HPLM + 10% dialyzed FBS, 46.1 µM | – | 125 | 107
RPMI 5 mM glucose + 10% FBS, 0.000781 µM | 105 | – | –
RPMI 5 mM glucose + 10% FBS, 0.00234 µM | 124 | – | –
RPMI 5 mM glucose + 10% FBS, 0.00702 µM | 126 | – | –
RPMI 5 mM glucose + 10% FBS, 0.0211 µM | 128 | – | –
RPMI 5 mM glucose + 10% FBS, 0.0632 µM | 127 | – | –
RPMI 5 mM glucose + 10% FBS, 0.19 µM | 141 | – | –
RPMI 5 mM glucose + 10% FBS, 0.569 µM | 144 | – | –
RPMI 5 mM glucose + 10% FBS, 1.71 µM | 157 | – | –
RPMI 5 mM glucose + 10% FBS, 5.12 µM | 141 | – | –
RPMI 5 mM glucose + 10% FBS, 15.4 µM | 151 | – | –
RPMI 5 mM glucose + 10% FBS, 46.1 µM | 165 | – | –
RPMI 5 mM glucose + 10% dialyzed FBS, 0.000781 µM | 92.9 | – | 135
RPMI 5 mM glucose + 10% dialyzed FBS, 0.00234 µM | 128 | – | 124
RPMI 5 mM glucose + 10% dialyzed FBS, 0.00702 µM | 119 | – | 119
RPMI 5 mM glucose + 10% dialyzed FBS, 0.0211 µM | 136 | – | 129
RPMI 5 mM glucose + 10% dialyzed FBS, 0.0632 µM | 155 | – | 138
RPMI 5 mM glucose + 10% dialyzed FBS, 0.19 µM | 160 | – | 123
RPMI 5 mM glucose + 10% dialyzed FBS, 0.569 µM | 139 | – | 128
RPMI 5 mM glucose + 10% dialyzed FBS, 1.71 µM | 147 | – | 116
RPMI 5 mM glucose + 10% dialyzed FBS, 5.12 µM | 168 | – | 93.4
RPMI 5 mM glucose + 10% dialyzed FBS, 15.4 µM | 147 | – | 116
RPMI 5 mM glucose + 10% dialyzed FBS, 46.1 µM | 150 | – | 103

AUC of viability dose-response curve
Conditions | NOMO1 [2] | P12-Ichikawa [4] | SEM cells [3]
HPLM + 10% dialyzed FBS | 460 | 464 | 452
RPMI 5 mM glucose + 10% FBS | 412 | 447 | 446
RPMI 5 mM glucose + 10% dialyzed FBS | 442 | 466 | 450

COC1=CC=C2[N](CCCN(C)C)C=C(C2=C1)C/3=C(/C(=O)NC3=O)C4=C[NH]C5=C4C=CC=C5
SEM cells [1], HPLM + 10% dialyzed FBS
Conditions | cell viability [%]
0.000781 µM | 107
0.00234 µM | 123
0.00702 µM | 123
0.0211 µM | 123
0.0632 µM | 122
0.19 µM | 57.2
0.569 µM | 132
1.71 µM | 111
5.12 µM | 88.4
15.4 µM | 67.4
46.1 µM | 8.06

AUC of viability dose-response curve
Conditions | NOMO1 [2] | P12-Ichikawa [4] | SEM cells [3]
HPLM + 10% dialyzed FBS | 471 | 456 | 425
RPMI 5 mM glucose + 10% FBS | 471 | 453 | 365
RPMI 5 mM glucose + 10% dialyzed FBS | 472 | 452 | 387

CCOC(=O)[C@H](CCc1ccccc1)N[C@H]1CS[C@H](c2cccs2)CN(CC(=O)O)C1=O.Cl
AUC of viability dose-response curve
Conditions | NOMO1 [2] | P12-Ichikawa [4] | SEM cells [3]
HPLM + 10% dialyzed FBS | 384 | 400 | 461
RPMI 5 mM glucose + 10% FBS | 408 | 401 | 437
RPMI 5 mM glucose + 10% dialyzed FBS | 395 | 421 | 468

CC[C@H]1OC(=O)[C@H](C)[C@@H](O[C@H]2C[C@@](C)(OC)[C@@H](O)[C@H](C)O2)[C@H](C)[C@@H](O[C@@H]2O[C@H](C)C[C@H](N(C)C)[C@H]2O)[C@](C)(O)C[C@@H](C)CN(C)[C@H](C)[C@@H](O)[C@]1(C)O
SEM cells [1], HPLM + 10% dialyzed FBS
Conditions | cell viability [%]
0.000781 µM | 85.1
0.00234 µM | 122
0.00702 µM | 124
0.0211 µM | 129
0.0632 µM | 133
0.19 µM | 127
0.569 µM | 149
1.71 µM | 119
5.12 µM | 129
15.4 µM | 133
46.1 µM | 96.6

AUC of viability dose-response curve
Conditions | NOMO1 [2] | P12-Ichikawa [4] | SEM cells [3]
HPLM + 10% dialyzed FBS | 458 | 458 | 458
RPMI 5 mM glucose + 10% FBS | 419 | 452 | 458
RPMI 5 mM glucose + 10% dialyzed FBS | 446 | 459 | 467

CCCCC[C@H](O)/C=C/[C@H]1[C@H](O)CC(=O)[C@@H]1CCCCCCC(=O)O
AUC of viability dose-response curve
Conditions | NOMO1 [2] | P12-Ichikawa [4] | SEM cells [3]
HPLM + 10% dialyzed FBS | 412 | 464 | 402
RPMI 5 mM glucose + 10% FBS | 455 | 445 | 399
RPMI 5 mM glucose + 10% dialyzed FBS | 417 | 453 | 409
